The text below walks through data of patent publication US6566401B2, “N-acetylcysteine compositions and methods for the treatment and prevention of drug toxicity” (The Board of Trustees of the Leland Stanford Junior …, priority 2001, dated 2003).

Series [1] in a line: NAC treatment of subjects taking AZT: hematologic toxicity. The format is in vivo, human. As to conditions: HIV disease. The text has this: Results have shown that acetaminophen usage, which lowers glutathione levels exacerbates AZT toxicity. Richman, et al. (1987) N. Eng. J. Med. 317: 192-97. De Rosa et al. recently have shown that treatment with NAC which increases glutathione levels decreases the toxicity. De Rosa et al., submitted to JAMA for publication.
It appears that NAC provides cysteine needed to redress the excessive sulfur loss that occurs in HIV disease and specifically to replenish intracellular glutathione. […] This decreases the AZT-mediated inhibition of erythroid development, helps to improve the overall metabolism and stability of erythrocytes and their progenitors (for example, by enabling optimal functioning of the glucose-6-phosphate dehydrogenase and other energy-supplying pathways). In addition, it improves the cell's ability to withstand the production of oxidants induced by the introduction of drugs (such as AZT) and the internal production of molecules (such as TNF and HIV-TAT) that trigger intracellular oxidant production.

For series [2] the following is noted: cited from earlier work.
For series [3] the following is noted: effects counter to those reported for NAC; cited from earlier work.

On to `CC(=O)N[C@@H](CS)C(=O)O` [NAC, N-acetylcysteine], for which, in series [1], the “effect of NAC treatment on AZT's hematologic toxicity” value is given as “decreases AZT's hematologic toxicity”. The “half-cell potential for the NAC thiol/disulfide pair” value in series [2] is “about +63 mV”. For the compound `CC(=O)N[C@@H](CSSC[C@H](NC(C)=O)C(=O)O)C(=O)O` [oxidized form of NAC, di-n-acetylcysteine], in series [3], the “bioactive dose relative to NAC (fold less than NAC)” value was 10-100 fold.
